# Assay results published in patent publication US4415567A, “7α-Methoxycephalosporin derivatives, and antibacterial drugs containing the same” (Eisai Co., Ltd., priority 1980, dated 1983).
# Counter-ions that a name gives are not always drawn.
# Columns and labels:
# [1] = acute toxicity, LD50 (mouse, oral); conditions: in vivo
# Excerpt: The acute toxicity values [LD50 (mouse, oral)] for the following compounds of this invention were over 5 g/kg: […]
# Proteus morganii EP-14 = assay: MIC, standard agar dilution method, Proteus morganii EP-14; format: cell-based; conditions: Morganella morganii, EP14, Mueller Hinton agar, 18 hours, 37° C.
# Description: (§1) Minimal inhibitory concentration (MIC) was determined by the standard agar dilution method of the Japan Society of Chemotherapy.
# (§2) Compounds were dissolved in appropriate solvents (sterilized water for sodium salts and acetone-water [1:1] for free acids) and serial two-fold dilutions were made. Sodium salt of Cefazolin was chosen as the control compound.
# (§3) One-ml aliquots of each dilution were mixed with 9 ml of Mueller Hinton gar in petri-dishes to make agar plates containing the compound at serially diluted concentrations. After agar hardened, plates were put in an incubator at 37° C. for 1.5-2 hours with the lids slightly open to evaporate acetone off the plates.
# (§4) Test organisms were grown for 18 hours at 37° C. in Trypticase Soy broth and diluted in saline to approximately 10^6 colony forming units per ml. A loopful of each cell suspension was applied on the agar plate mentioned above and the plates were incubated for 18 hours at 37° C. before MIC was determined.
# (§5) The results are shown in Table 2, wherein the compound of Example 5 was selected and used in a form of free carboxylic acid as set forth in the Example 5, Item (a).
# [2] = tested on: Pseudomonas aeruginosa EP-172; assay: MIC, standard agar dilution method, Pseudomonas aeruginosa EP-172; format: cell-based; conditions: EP172, Mueller Hinton agar, 18 hours, 37° C.
# Description: as §1, §2, §3, §4, §5
# [3] = tested on: Serratia marcescens ES-75; assay: MIC, standard agar dilution method, Serratia marcescens ES-75; format: cell-based; conditions: ES75, Mueller Hinton agar, 18 hours, 37° C.
# Description: as §1, §2, §3, §4, §5
# [4] = tested on: Staphylococcus aureus 209-P; assay: MIC, standard agar dilution method, Staphylococcus aureus 209-P; format: cell-based; conditions: Mueller Hinton agar, 18 hours, 37° C.
# Description: as §1, §2, §3, §4, §5
# Proteus bulgaris E-18 = assay: MIC, standard agar dilution method, Proteus bulgaris E-18; format: cell-based; conditions: Mueller Hinton agar, 18 hours, 37° C.
# Description: as §1, §2, §3, §4, §5
# [5] = tested on: Klebsielle pneumoniae EK-6; assay: MIC, standard agar dilution method, Klebsielle pneumoniae EK-6; format: cell-based; conditions: Klebsielle pneumoniae EK-6; Mueller Hinton agar, 18 hours, 37° C.; read-out: MIC
# Description: as §1, §2, §3, §4, §5
# Escherichia coli NIHJ = assay: MIC, standard agar dilution method, Escherichia coli NIHJ; format: cell-based; conditions: Escherichia coli NIHJ; Mueller Hinton agar, 18 hours, 37° C.; read-out: MIC
# Description: as §1, §2, §3, §4, §5
SMILES,LD50 [1],MIC (Proteus morganii EP-14),MIC [2],MIC [3],MIC [4],MIC (Proteus bulgaris E-18),MIC [5],MIC (Escherichia coli NIHJ)
"CO[C@@]1(NC(=O)[C@H](NC(=O)c2coc3cc(O)c(O)cc3c2=O)c2ccc(O)cc2)C(=O)N2C(C(=O)O)=C(CSc3nnc(C)s3)CS[C@@H]21 [7β-[D-2-(6,7-Dihydroxychromone-3-carboxamido)-2-(4-hydroxyphenyl)acetamido]-7α-methoxy-3-[5-methyl-2-(1,3,4-thiadiazolyl)]thiomethyl-3-cephem-4-carboxylic acid]",> 5000 mg/kg,,,,,,,
"CO[C@@]1(NC(=O)[C@H](NC(=O)c2coc3cc(O)c(O)cc3c2=O)c2ccc(O)cc2)C(=O)N2C(C(=O)O)=C(CSc3nnnn3C)CS[C@@H]21 [Example 3, 7β-[D-2-(6,7-Dihydroxychromone-3-carboxamido)-2-(4-hydroxyphenyl)acetamido]-7α-methoxy-3-(1-methyl-5-tetrazolyl)thiomethyl-3-cephem-4-carboxylic acid]",> 5000 mg/kg,3.13 µg/mL,0.8 µg/mL,≤ 0.1 µg/mL,3.13 µg/mL,0.8 µg/mL,≤ 0.1 µg/mL,0.4 µg/mL
"CO[C@@]1(NC(=O)[C@H](NC(=O)c2coc3cc(O)c(O)cc3c2=O)c2ccc(O)cc2)C(=O)N2C(C(=O)O)=C(CSc3nnnn3CC(=O)O)CS[C@@H]21 [Example 16, 7β-[D-2-(6,7-Dihydroxychromone-3-carboxamido)-2-(4-hydroxyphenyl)acetamido]-7α-methoxy-3-1-carboxymethyl-5-tetrazolyl)thiomethyl-3-cephem-4-carboxylic acid disodium salt]",> 5000 mg/kg,,,,,,,
"CCOC(=O)Oc1cc2occ(C(=O)N[C@@H](C(=O)N[C@]3(OC)C(=O)N4C(C(=O)O)=C(CSc5nnnn5CC(=O)OC)CS[C@@H]43)c3ccc(O)cc3)c(=O)c2cc1OC(=O)OCC [Example 20, 7β-[D-2-(6,7-Bis(ethoxycarbonyloxy)chromone-3-carboxamido)-2-(4-hydroxyphenyl)acetamido]-7α-methoxy-3-(1-methoxycarbonylmethyl-5-tetrazolyl)thiomethyl-3-cephem-4-carboxylic acid]",> 5000 mg/kg,6.25 µg/mL,0.4 µg/mL,0.2 µg/mL,6.25 µg/mL,0.8 µg/mL,≤ 0.1 µg/mL,3.13 µg/mL
"CO[C@@]1(NC(=O)[C@H](NC(=O)c2coc3cc(OC(=O)OCC(Cl)(Cl)Cl)c(OC(=O)OCC(Cl)(Cl)Cl)cc3c2=O)c2ccc(O)cc2)C(=O)N2C(C(=O)O)=C(CSc3nnnn3C)CS[C@@H]21 [Example 23, 7β-[D-2-(6,7-Bis(2,2,2-trichloroethoxycarbonyloxy)chromone-3-carboxamido)-2-(4-hydroxyphenyl)-acetamido]-7α-methoxy-3-(1-methyl-5-tetrazolyl)thiomethyl-3-cephem-4-carboxylic acid]",> 5000 mg/kg,6.25 µg/mL,0.8 µg/mL,0.2 µg/mL,3.13 µg/mL,0.8 µg/mL,≤ 0.1 µg/mL,6.25 µg/mL
"CO[C@@]1(NC(=O)[C@H](NC(=O)c2coc3cc(OC(=O)OCC(Cl)(Cl)Cl)c(OC(=O)OCC(Cl)(Cl)Cl)cc3c2=O)c2ccc(O)cc2)C(=O)N2C(C(=O)O)=C(COC(C)=O)CS[C@@H]21 [Example 25, 7β-[D-2-(6,7-Bis(2,2,2-trichloroethoxycarbonyloxy)chromone-3-carboxamido)-2-(4-hydroxyphenyl)acetamido]-7α-methoxy-3-acetoxymethyl-3-cephem-4-carboxylic acid]",,25 µg/mL,0.8 µg/mL,0.8 µg/mL,3.13 µg/mL,3.13 µg/mL,≤ 0.1 µg/mL,12.5 µg/mL
"COC(=O)Cn1nnnc1SCC1=C(C(=O)O)N2C(=O)[C@](NC(=O)[C@H](NC(=O)c3coc4cc(OC(=O)OCC(Cl)(Cl)Cl)c(OC(=O)OCC(Cl)(Cl)Cl)cc4c3=O)c3ccc(O)cc3)(OC)[C@H]2SC1 [Example 26, 7β-[D-2-(6,7-Bis(2,2,2-trichloroethoxycarbonyloxy)chromone-3-carboxamido)-2-(4-hydroxyphenyl)acetamido]-7α-methoxy-3-(1-methoxycarbonylmethyl-5-tetrazolyl)thiomethyl-3-cephem-4-carboxylic acid]",,6.25 µg/mL,1.56 µg/mL,0.2 µg/mL,12.5 µg/mL,0.8 µg/mL,≤ 0.1 µg/mL,6.25 µg/mL
"CCOC(=O)Oc1cc2occ(C(=O)N[C@@H](C(=O)N[C@]3(OC)C(=O)N4C(C(=O)O)=C(CSc5nnnn5CC(=O)O)CS[C@@H]43)c3ccc(O)cc3)c(=O)c2cc1OC(=O)OCC [Example 27, 7β-[D-2-(6,7-Bis(ethoxycarbonyloxy)chromone-3-carboxamido)-2-(4-hydroxyphenyl)acetamido]-7α-methoxy-3-(1-carboxymethyl-5-tetrazolyl)thiomethyl-3-cephem-4-carboxylic acid]",,6.25 µg/mL,0.8 µg/mL,0.2 µg/mL,3.13 µg/mL,0.8 µg/mL,≤ 0.1 µg/mL,3.13 µg/mL
"CO[C@@]1(NC(=O)[C@H](NC(=O)c2coc3cc(O)c(O)cc3c2=O)c2ccc(O)cc2)C(=O)N2C(C(=O)O)=C(CSc3nnc(CC(=O)O)s3)CS[C@@H]21 [Example 28, 7β-[D-2-(6,7-Dihydroxychromone-3-carboxamido)-2-(4-hydroxyphenyl)acetamido]-7α-methoxy-3-[5-carboxymethyl-2-(1,3,4-thiadiazolyl)]thiomethyl-3-cephem-4-carboxylic acid]",,12.5 µg/mL,0.8 µg/mL,0.4 µg/mL,3.13 µg/mL,1.56 µg/mL,≤ 0.1 µg/mL,3.13 µg/mL
"CO[C@@]1(NC(=O)[C@H](NC(=O)c2coc3cc(O)c(O)cc3c2=O)c2ccc(O)cc2)C(=O)N2C(C(=O)O)=C(CSc3nnc(CC(=O)O)o3)CS[C@@H]21 [Example 29, 7β-[D-2-(6,7-Dihydroxychromone-3-carboxamido)-2-(4-hydroxyphenyl)acetamido]-7α-methoxy-3-[5-carboxymethyl-2-(1,3,4-oxadiazolyl)]thiomethyl-3-cephem-4-carboxylic acid]",,25 µg/mL,0.8 µg/mL,0.8 µg/mL,6.25 µg/mL,3.13 µg/mL,≤ 0.1 µg/mL,12.5 µg/mL
"CO[C@@]1(NC(=O)[C@H](NC(=O)c2coc3cc(O)c(O)cc3c2=O)c2ccc(O)cc2)C(=O)N2C(C(=O)O)=C(CSc3nnnn3CCN(C)C)CS[C@@H]21 [Example 31, 7β-[D-2-(6,7-Dihydroxychromone-3-carboxamido)-2-(4-hydroxyphenyl)acetamido]-7α-methoxy-3-[1-[2-(N,N-dimethylamino)ethyl]-5-tetrazolyl]thiomethyl-3-cephem-4-carboxylic acid]",,25 µg/mL,0.8 µg/mL,0.4 µg/mL,3.13 µg/mL,3.13 µg/mL,≤ 0.1 µg/mL,12.5 µg/mL
"CCn1nnnc1SCC1=C(C(=O)O)N2C(=O)[C@](NC(=O)[C@H](NC(=O)c3coc4cc(O)c(O)cc4c3=O)c3ccc(O)cc3)(OC)[C@H]2SC1 [Example 32, 7β-[D-2-(6,7-Dihydroxychromone-3-carboxamido)-2-(4-hydroxyphenyl)acetamido]-7α-methoxy-3-(1-ethyl-5-tetrazolyl)thiomethyl-3-cephem-4-carboxylic acid]",,12.5 µg/mL,0.4 µg/mL,0.2 µg/mL,1.56 µg/mL,1.56 µg/mL,≤ 0.1 µg/mL,3.13 µg/mL
"CO[C@@]1(NC(=O)[C@H](NC(=O)c2coc3cc(O)c(O)cc3c2=O)c2ccc(O)cc2)C(=O)N2C(C(=O)O)=C(CSc3nncs3)CS[C@@H]21 [Example 33, 7β-[D-2-(6,7-Dihydroxychromone-3-carboxamido)-2-(4-hydroxyphenyl)acetamido]-7α-methoxy-3-[2-(1,3,4-thiadiazolyl)]thiomethyl-3-cephem-4-carboxylic acid]",,25 µg/mL,0.4 µg/mL,0.2 µg/mL,1.56 µg/mL,1.56 µg/mL,≤ 0.1 µg/mL,6.25 µg/mL
